Laboratory results as given in patent publication US8530179B2, “Electrochemical methods of detecting cancer with 4-aminophenyl phosphate” (Ramot at Tel-Aviv University Ltd, priority 2007, dated 2013).

Tested on: HT-29 colon cancer cells
Test: Amperometric measurement of induced alkaline phosphatase activity in HT-29 cells on the electrochemical array chip (substrate p-APP, 220 mV)
Assay type: cell-based, human
Details: for induced alkaline phosphatase enzymatic activity (amperometric current): exposed for 96 hours, substrate PAPP, 220 mV
Procedure: HT-29 human colon cancer cells were grown in DMEM medium in the presence of fetal bovine serum at 37° C. in 95% air, 5% CO2 for 3 days prior to butyrate treatment. Butyrate at different concentrations was added to the HT-29 cell cultures. Concentrations applied were: 0, 0.078, 0.156, 0.3125, 0.625, 1.25, 2.5, 5 and 10 mM. Optimal butyrate concentration, LC50 and viability were calculated accordingly. The measurements were performed in PBS with the intact cells and without additional treatment of the cancer cells such as lysis.
BA (Sigma, Israel) ranging between 0.08-10 mM were introduced to HT-29 colon cancer cells and incubated for 72 h for optimization. BA at a constant concentration of 2.5 mM was applied in all electrochemical experiments. BA derivatives, butyroylmethyl-diethyl phosphate, and pivaloyloxymethyl butyrate, were synthesized as described [Rephaeli A, Zhuk R, Nudelman A, 2000, Drug Develop. Res. Vol 50:379-391]. Butyroylmethyl-diethyl phosphate was solubilized in PBS and pivaloyloxymethyl butyrate in DMSO followed by dilution with medium to a final DMSO concentration of ≦0.1%. The prodrugs were then introduced to the cells at a constant concentration of 50 μM and incubated for 96 h at 37° C. in 95% air, 5% CO2 conditions. Following incubation with the differentiation agents, viable cells were counted by tripa blue exclusion and tested for viability and LC50 calculations. Prior to all electrochemical measurement, cells were centrifuged and diluted in PBS. All measurements were performed in PBS. The influence of BA, pivaloyloxymethyl butyrate and butyroylmethyl-diethyl phosphate were examined by measuring the enzymatic activity of alkaline phosphatase.
Amperometric enzyme measurements were performed with the electrochemical substrate, p-APP. The enzymatic reaction product, aminophenol (p-AP), is oxidized at the gold working electrode at 220 mV and the generated current was measured. Eight-channeled 100 nL volume electrochemical chambers were loaded with HT-29 cancer cells, that were treated with BA or its derivatives. Cells were placed into the electrochemical chambers and the substrate was added to 1 mg/ml final concentration at a total volume of 100 nL. The generated current was measured and the number of cells was counted under the microscope. The correlation between cell number and current density was analyzed.
HT-29 colon cancer cells were exposed for 96 hours to various differentiation therapy agents and the induced alkaline phosphatase activity was measured. […]
In order to further examine the sensitivity of the biochip, increasing numbers of HT-29 colon cancer cells were incubated with butyroylmethyl-diethyl phosphate for different lengths of time. The amount of endogenous alkaline phosphatase was measured using the biochip of the present invention.

CCCC(=O)OCOP(=O)(OCC)OCC [butyroylmethyl-diethyl phosphate]
induced alkaline phosphatase enzymatic activity (amperometric current) (50 μM): induced enzymatic activity of alkaline phosphatase
effect on cancer cells (alkaline phosphatase current signal) versus incubation time (eight, seventy eight and ninety six hour treatment, increasing cell numbers): increased as incubation time increased

CCCC(=O)O [BA, Butyric acid]
induced alkaline phosphatase enzymatic activity (amperometric current) (2.5 mM): induced enzymatic activity of alkaline phosphatase

CCCC(=O)OCOC(=O)C(C)(C)C [pivaloyloxymethyl butyrate]
induced alkaline phosphatase enzymatic activity (amperometric current) (50 μM): did not induce any enzyme activity
